Data taken from patent US20020048549A1, “Radioactive transition metal nitride heterocomplex” (priority 1996, published 2002).
Where two headings read alike, the source gives them in different places.

Test: Biodistribution of 99mTc(N)(X)(DTC)+ heterocomplexes in rats
Format: in vivo, male Spraque-Dawley rats (SD rats)
Method: The biodistribution of a ^99mTc nitride heterocomplex represented by the general formula ^99mTc(N)(X)(Y) was investigated as follows: ^99mTc nitride heterocomplexes were synthesized using DTC as a bidentate ligand Y and each of the diphosphine compounds X described below, and the biodistribution in rats of each heterocomplex was investigated.
Before being injected into rats, the contents of the vial were diluted with phosphate buffer (0.1 mol/dm^3, pH=7.06) containing 10% Tween 80 ([…]). The complexes were stable in the solutions and in human plasma for at least 6 hours.
The biodistribution was measured using male Spraque-Dawley rats (SD rats) weighing 200 to 250 g. After 24 hours fasting, the rats were put under intraperitoneal anesthesia and given an injection in the jugular vein. Then, the organs were excised from the rats at different intervals of time, washed and then weighed. In addition, blood samples were collected and then weighed. The data on the biodistribution are expressed as the mean±significant difference of the percentage of radioactivity level per gram of the organ weight based on the dose of radioactivity, (% dose/g). The measurement was carried out using groups of 5 rats each.

**Q.** With `COCCC[P]1(CCCOC)CCN(CCOC)CC[P](CCCOC)(CCCOC)[99Tc+]12(#[N])[NH]N(C)C(SC)=[S]2` [^99mTc(N)(PNP3)(DTC)^+] as the compound, how does the Bone % dose/g read?
**A.** The Bone % dose/g was 0.198 ± 0.03 % dose/g.

**Q.** And the Heart % dose/g?
**A.** Its Heart % dose/g is 2.704 ± 0.03 % dose/g.

**Q.** What about the Liver % dose/g of the same compound?
**A.** Its Liver % dose/g is 1.5 ± 0.02 % dose/g.

**Q.** What about the Spleen % dose/g of the same compound?
**A.** The Spleen % dose/g was 1.686 ± 0.03 % dose/g.

**Q.** What about the Blood % dose/g (0 min after injection) of the same compound?
**A.** Its Blood % dose/g is 1.149 ± 0.04 % dose/g.

**Q.** And the Brain % dose/g (0 min after injection)?
**A.** Its Brain % dose/g is 0.096 ± 0.00 % dose/g.

**Q.** And the Intestine % dose/g (0 min after injection)?
**A.** Its Intestine % dose/g is 2.578 ± 0.350 % dose/g.

**Q.** What about the Kidney % dose/g (0 min after injection) of the same compound?
**A.** The Kidney % dose/g was 8.289 ± 0.03 % dose/g.

**Q.** And the Lung % dose/g (0 min after injection)?
**A.** The Lung % dose/g was 2.133 ± 0.03 % dose/g.

**Q.** And the Muscle % dose/g (0 min after injection)?
**A.** Its Muscle % dose/g is 0.232 ± 0.07 % dose/g.

**Q.** And the Stomach % dose/g (0 min after injection)?
**A.** The Stomach % dose/g was 1.121 ± 0.01 % dose/g.

**Q.** And the Blood % dose/g (2 min after injection)?
**A.** The Blood % dose/g was 0.421 ± 0.10 % dose/g.

**Q.** What about the Bone % dose/g (2 min after injection) of the same compound?
**A.** Its Bone % dose/g is 2.242 ± 0.02 % dose/g.

**Q.** What about the Brain % dose/g (2 min after injection) of the same compound?
**A.** The Brain % dose/g was 0.035 ± 0.01 % dose/g.

**Q.** And the Heart % dose/g (2 min after injection)?
**A.** The Heart % dose/g was 3.007 ± 0.16 % dose/g.

**Q.** And the Intestine % dose/g (2 min after injection)?
**A.** Its Intestine % dose/g is 4.188 ± 0.60 % dose/g.

**Q.** What about the Kidney % dose/g (2 min after injection) of the same compound?
**A.** Its Kidney % dose/g is 9.676 ± 0.620 % dose/g.

**Q.** And the Liver % dose/g (2 min after injection)?
**A.** The Liver % dose/g was 2.778 ± 0.06 % dose/g.

**Q.** And the Lung % dose/g (2 min after injection)?
**A.** The Lung % dose/g was 0.995 ± 0.17 % dose/g.

**Q.** What about the Muscle % dose/g (2 min after injection) of the same compound?
**A.** The Muscle % dose/g was 0.264 ± 0.09 % dose/g.

**Q.** And the Spleen % dose/g (2 min after injection)?
**A.** The Spleen % dose/g was 1.215 ± 0.1 % dose/g.

**Q.** And the Stomach % dose/g (2 min after injection)?
**A.** Its Stomach % dose/g is 0.740 ± 0.02 % dose/g.

**Q.** What about the Blood % dose/g (10 min after injection) of the same compound?
**A.** The Blood % dose/g was 0.147 ± 0.02 % dose/g.

**Q.** And the Bone % dose/g (10 min after injection)?
**A.** The Bone % dose/g was 0.204 ± 0.00 % dose/g.

**Q.** What about the Brain % dose/g (10 min after injection) of the same compound?
**A.** Its Brain % dose/g is 0.019 ± 0.00 % dose/g.

**Q.** What about the Heart % dose/g (10 min after injection) of the same compound?
**A.** The Heart % dose/g was 2.506 ± 0.10 % dose/g.

**Q.** What about the Intestine % dose/g (10 min after injection) of the same compound?
**A.** Its Intestine % dose/g is 10.959 ± 1.64 % dose/g.

**Q.** And the Kidney % dose/g (10 min after injection)?
**A.** Its Kidney % dose/g is 6.559 ± 0.928 % dose/g.

**Q.** And the Liver % dose/g (10 min after injection)?
**A.** Its Liver % dose/g is 1.719 ± 0.14 % dose/g.

**Q.** And the Lung % dose/g (10 min after injection)?
**A.** Its Lung % dose/g is 0.725 ± 0.104 % dose/g.

**Q.** What about the Muscle % dose/g (10 min after injection) of the same compound?
**A.** The Muscle % dose/g was 0.252 ± 0.01 % dose/g.

**Q.** What about the Spleen % dose/g (10 min after injection) of the same compound?
**A.** Its Spleen % dose/g is 0.856 ± 0.12 % dose/g.

**Q.** And the Stomach % dose/g (10 min after injection)?
**A.** The Stomach % dose/g was 0.852 ± 0.118 % dose/g.

**Q.** And the Blood % dose/g (30 min after injection)?
**A.** The Blood % dose/g was 0.098 ± 0.01 % dose/g.

**Q.** What about the Bone % dose/g (30 min after injection) of the same compound?
**A.** The Bone % dose/g was 0.230 ± 0.04 % dose/g.

**Q.** And the Brain % dose/g (30 min after injection)?
**A.** Its Brain % dose/g is 0.012 ± 0.00 % dose/g.

**Q.** And the Heart % dose/g (30 min after injection)?
**A.** The Heart % dose/g was 2.551 ± 0.10 % dose/g.

**Q.** And the Intestine % dose/g (30 min after injection)?
**A.** The Intestine % dose/g was 10.201 ± 1.28 % dose/g.

**Q.** And the Kidney % dose/g (30 min after injection)?
**A.** Its Kidney % dose/g is 5.354 ± 1.00 % dose/g.

**Q.** And the Liver % dose/g (30 min after injection)?
**A.** The Liver % dose/g was 0.732 ± 0.08 % dose/g.

**Q.** And the Lung % dose/g (30 min after injection)?
**A.** The Lung % dose/g was 0.446 ± 0.00 % dose/g.

**Q.** And the Muscle % dose/g (30 min after injection)?
**A.** The Muscle % dose/g was 0.273 ± 0.05 % dose/g.

**Q.** And the Spleen % dose/g (30 min after injection)?
**A.** Its Spleen % dose/g is 0.550 ± 0.06 % dose/g.

**Q.** And the Stomach % dose/g (30 min after injection)?
**A.** Its Stomach % dose/g is 1.511 ± 0.39 % dose/g.

**Q.** What about the Blood % dose/g (1 hr after injection) of the same compound?
**A.** Its Blood % dose/g is 0.071 ± 0.00 % dose/g.

**Q.** And the Bone % dose/g (1 hr after injection)?
**A.** Its Bone % dose/g is 0.099 ± 0.00 % dose/g.

**Q.** What about the Brain % dose/g (1 hr after injection) of the same compound?
**A.** The Brain % dose/g was 0.014 ± 0.00 % dose/g.

**Q.** And the Heart % dose/g (1 hr after injection)?
**A.** The Heart % dose/g was 2.155 ± 0.29 % dose/g.

**Q.** What about the Intestine % dose/g (1 hr after injection) of the same compound?
**A.** Its Intestine % dose/g is 5.447 ± 0.87 % dose/g.

**Q.** And the Kidney % dose/g (1 hr after injection)?
**A.** Its Kidney % dose/g is 4.127 ± 0.178 % dose/g.

**Q.** And the Liver % dose/g (1 hr after injection)?
**A.** The Liver % dose/g was 0.500 ± 0.01 % dose/g.

**Q.** And the Lung % dose/g (1 hr after injection)?
**A.** Its Lung % dose/g is 0.329 ± 0.05 % dose/g.

**Q.** And the Muscle % dose/g (1 hr after injection)?
**A.** The Muscle % dose/g was 0.236 ± 0.04 % dose/g.

**Q.** And the Spleen % dose/g (1 hr after injection)?
**A.** The Spleen % dose/g was 0.238 ± 0.02 % dose/g.

**Q.** And the Stomach % dose/g (1 hr after injection)?
**A.** The Stomach % dose/g was 0.892 ± 0.085 % dose/g.

**Q.** What about the Blood % dose/g (2 hr after injection) of the same compound?
**A.** The Blood % dose/g was 0.049 ± 0.00 % dose/g.

**Q.** What about the Bone % dose/g (2 hr after injection) of the same compound?
**A.** The Bone % dose/g was 0.121 ± 0.00 % dose/g.

**Q.** What about the Brain % dose/g (2 hr after injection) of the same compound?
**A.** The Brain % dose/g was 0.009 ± 0.00 % dose/g.

**Q.** And the Heart % dose/g (2 hr after injection)?
**A.** Its Heart % dose/g is 2.721 ± 0.06 % dose/g.

**Q.** And the Intestine % dose/g (2 hr after injection)?
**A.** The Intestine % dose/g was 2.720 ± 0.11 % dose/g.

**Q.** And the Kidney % dose/g (2 hr after injection)?
**A.** The Kidney % dose/g was 3.139 ± 0.20 % dose/g.

**Q.** And the Liver % dose/g (2 hr after injection)?
**A.** Its Liver % dose/g is 0.164 ± 0.04 % dose/g.

**Q.** And the Lung % dose/g (2 hr after injection)?
**A.** Its Lung % dose/g is 0.312 ± 0.2 % dose/g.

**Q.** And the Muscle % dose/g (2 hr after injection)?
**A.** Its Muscle % dose/g is 0.268 ± 0.88 % dose/g.

**Q.** And the Spleen % dose/g (2 hr after injection)?
**A.** The Spleen % dose/g was 0.300 ± 0.05 % dose/g.

**Q.** And the Stomach % dose/g (2 hr after injection)?
**A.** The Stomach % dose/g was 1.521 ± 0.50 % dose/g.

**Q.** And the Blood % dose/g (4 hr after injection)?
**A.** Its Blood % dose/g is 0.030 ± 0.00 % dose/g.

**Q.** And the Bone % dose/g (4 hr after injection)?
**A.** The Bone % dose/g was 0.079 ± 0.01 % dose/g.

**Q.** And the Brain % dose/g (4 hr after injection)?
**A.** Its Brain % dose/g is 0.009 ± 0.00 % dose/g.

**Q.** And the Heart % dose/g (4 hr after injection)?
**A.** The Heart % dose/g was 2.503 ± 0.13 % dose/g.

**Q.** What about the Intestine % dose/g (4 hr after injection) of the same compound?
**A.** Its Intestine % dose/g is 1.810 ± 0.716 % dose/g.

**Q.** And the Kidney % dose/g (4 hr after injection)?
**A.** The Kidney % dose/g was 2.536 ± 0.12 % dose/g.

**Q.** And the Liver % dose/g (4 hr after injection)?
**A.** The Liver % dose/g was 0.155 ± 0.00 % dose/g.

**Q.** And the Lung % dose/g (4 hr after injection)?
**A.** Its Lung % dose/g is 0.219 ± 0.01 % dose/g.

**Q.** And the Muscle % dose/g (4 hr after injection)?
**A.** The Muscle % dose/g was 0.245 ± 0.031 % dose/g.

**Q.** What about the Spleen % dose/g (4 hr after injection) of the same compound?
**A.** Its Spleen % dose/g is 0.195 ± 0.02 % dose/g.

**Q.** What about the Stomach % dose/g (4 hr after injection) of the same compound?
**A.** The Stomach % dose/g was 0.485 ± 0.07 % dose/g.

**Q.** And the “elimination from kidney and liver” value (rats)?
**A.** The value was “relatively rapidly eliminated”.

**Q.** And the “washout from lung and blood” value (rats)?
**A.** Its value is “rapidly washed out”.

**Q.** And the accumulation in heart (rats, throughout the measurement)?
**A.** Its accumulation in heart is “very large amount”.
